Experiment: In-vivo testing for antiobesic activity
Conditions: rats
[1] = 10 mg/kg body weight daily intraperitoneally over 14 days

## O=C(NN1CCCCC1)C1=NN(c2ccc(Cl)cc2Cl)C(c2ccc(Cl)cc2)C1 (stereo not drawn) [Example 1, N-piperidinyl-5-(4-chlorophenyl)-1-(2,4-dichlorophenyl)-4,5-dihydro-1H-pyrazole-3-carboxamide]
[1]
  body weight (FIG. 1): body weight is lowered
  food intake (FIG. 2): reduction of food intake
After end of 14 days of 10 mg/kg daily intraperitoneally
  body weight effect after the treatment is ended (FIG. 1): also observed after the treatment is ended

From US7524868B2, “Substituted pyrazoline compounds, their preparation and use as medicaments” (Laboratorios Del Dr. Esteve, S.A., priority 2004, dated 2009)
